Laboratory results reported in patent publication US20240239788A1, “SMALL MOLECULE INHIBITORS OF KRAS G12D MUTANT” (Merck Sharp & Dohme LLC, priority 2021, published 2024).
Counter-ions that a name gives are not always drawn.

Biological target: KRAS protein containing G12D mutation (Homo sapiens (Human), UniProt P01116, G12D)
Test: SOS-catalyzed nucleotide exchange assay (GNE), TR-FRET
Assay type: biochemical
Conditions: biotinylated KRAS G12D, SOS and GTP, 60-minute incubation
Method: Compounds are added to this complex and then after a 60-minute incubation time the mixture is treated with SOS and unlabeled GTP. Small molecule inhibitors stabilize the Bodipy-GDP complex whereas the untreated protein rapidly exchanges Bodipy-GDP for unlabeled GTP resulting in reduced TR-FRET signal.
This solution is referred to as biotinylated KRAS G12D stock solution.

Chain of KRAS protein containing G12D mutation (P01116 other isoform, or with tags, fused parts or gaps G12D (already in the parent)): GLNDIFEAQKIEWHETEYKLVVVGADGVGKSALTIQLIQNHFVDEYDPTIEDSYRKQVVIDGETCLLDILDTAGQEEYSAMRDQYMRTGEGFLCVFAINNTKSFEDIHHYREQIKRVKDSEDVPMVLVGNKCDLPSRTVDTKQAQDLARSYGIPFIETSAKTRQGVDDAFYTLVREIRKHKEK

Compound | IC50
Cc1cc(N)nc(-c2c(Cl)cc3c(N4CC5CCC(C4)N5)nc(OC[C@@]45CCCN4[C@H](CO)CC5)nc3c2F)c1C(F)(F)F [Ex. 150] | 2.04 nM
C[C@]12CC[C@H](CN(c3nc(OC[C@@]45CCCN4C[C@H](F)C5)nc4c(F)c(-c5cc(F)cc6cccc(Cl)c56)c(F)cc34)C1)N2 [Ex. 158, 7-(8-chloro-3-fluoro-naphthalen-1-yl)-6,8-difluoro-2-(((2R,7aS)-2-fluorotetrahydro-1H-pyrrolizin-7a(5H)-yl)-methoxy)-4-((1S,5R)-1-methyl-3,8-diaza-bicyclo[3.2.1]octan-3-yl)quinazoline] | 1280 nM
CN1[C@@H]2CC[C@H]1CN(c1nc(OC[C@@]34CCCN3C[C@H](F)C4)nc3c(F)c(-c4cc(O)cc5cccc(Cl)c45)c(F)cc13)C2 [Ex. 161, 5-chloro-4-(6,8-difluoro-2-(((2R,7aS)-2-fluorotetrahydro-1H-pyrrolizin-7a(5H)-yl)-methoxy)-4-((1R,5S)-8-methyl-3,8-diaza-bicyclo[3.2.1]octan-3-yl)quinazolin-7-yl)-naphthalen-2-ol] | 591 nM
Cc1cc(-c2c(Cl)cc3c(N4C[C@H]5CC[C@@H](C4)N5)nc(OC[C@@]45CCCN4C[C@H](F)C5)nc3c2F)nc(N)c1OC(F)F [Ex. 168, 6-(4-((1R,5S)-3,8-diazabicyclo[3.2.1]-octan-3-yl)-6-chloro-8-fluoro-2-(((2R,7aS)-2-fluorotetrahydro-1H-pyrrolizin-7a(5H)-yl)-methoxy)quinazolin-7-yl)-3-(difluorometh-oxy)-4-methylpyridin-2-amine] | 1310 nM
Cc1nc(N)c(C)c(-c2c(F)cc3c(N4C[C@H]5CC[C@@H](C4)N5)nc(OC[C@@]45CCCN4C[C@H](F)C5)nc3c2F)c1C1CC1 [Ex. 198, 4-(4-((1R,5S)-3,8-diazabicyclo[3.2.1]-octan-3-yl)-6,8-difluoro-2-(((2R,7aS)-2-fluorotetrahydro-1H-pyrrolizin-7a(5H)-yl)-methoxy)quinazolin-7-yl)-5-cyclopropyl-3,6-dimethylpyridin-2-amine] | 1790 nM
CN(CC(C)(C)O)CC1(COc2nc(N3C[C@H]4CC[C@@](C)(C3)N4)c3cc(F)c(-c4cc(O)cc5ccccc45)c(F)c3n2)CC1 [Ex. 226, 4-(6,8-difluoro-2-((1-(((2-hydroxy-2-methylpropyl)(methyl)amino)methyl)cyclopropyl)methoxy)-4-((1S,5R)-1-methyl-3,8-diazabicyclo[3.2.1]octan-3-yl)quinazolin-7-yl)naphthalen-2-ol] | 55.1 nM
C#Cc1cccc2cc(O)cc(-c3c(F)cc4c(N5CC6(C)CCC(C)(C5)N6)nc(OC[C@@]56CCCN5C[C@H](F)C6)nc4c3F)c12 [Example 124, 4-(4-(1,5-dimethyl-3,8-diazabicyclo[3.2.1]octan-3-yl)-6,8-difluoro-2-(((2R,7aS)-2-fluorotetrahydro-1H-pyrrolizin-7a(5H)-yl)methoxy)quinazolin-7-yl)-5-ethynylnaphthalen-2-ol] | 1.21 nM
C#Cc1cccc2cc(O)cc(-c3c(F)cc4c(N5C[C@]6(C)CC[C@](F)(C5)N6)nc(OC[C@@]56CCCN5C[C@H](F)C6)nc4c3F)c12 [compound 240, 4-(6,8-difluoro-4-((18,5S)-1-fluoro-5-methyl-3,8-diazabicyclo[3.2.1]octan-3-yl)-2-(((2R,7aS)-2-fluorotetrahydro-1H-pyrrolizin-7a(5H)-yl)methoxy)quinazolin-7-yl)-5-ethynylnaphthalen-2-ol] | 135 nM

The remaining lines, values ahead:

IC50 | Compound
69.8 nM | C[C@]12CC[C@H](CN(c3nc(OC[C@@H]4CCCN4CCO)nc4c(F)c(-c5cc(O)cc6ccccc56)c(F)cc34)C1)N2 [Ex. 225, 4-(6,8-difluoro-2-(((S)-1-(2-hydroxyethyl)pyrrolidin-2-yl)methoxy)-4-((1S,5R)-1-methyl-3,8-diazabicyclo[3.2.1]octan-3-yl)quinazolin-7-yl)naphthalen-2-ol]
3280 nM | NC1(COc2nc(N3CC4CCC(C3)N4)c3cc(Cl)c(-c4cc(O)cc5ccccc45)c(F)c3n2)CCC(O)C1 (centres unmarked) [Example 108, 4-(2-((1-amino-3-hydroxycyclopentyl)methoxy)-4-(3,8-diazabicyclo[3.2.1]octan-3-yl)-6-chloro-8-fluoroquinazolin-7-yl)naphthalen-2-ol, TFA]
2680 nM | Oc1cc(-c2c(Cl)cc3c(N4CC5CCC(C4)N5)nc(OCC4CNC4)nc3c2F)c2ccccc2c1 [Example 109, 4-(2-(azetidin-3-ylmethoxy)-4-(3,8-diazabicyclo[3.2.1]octan-3-yl)-6-chloro-8-fluoroquinazolin-7-yl)naphthalen-2-ol, TFA]
770 nM | Oc1cc(-c2c(Cl)cc3c(N4CC5CCC(C4)N5)nc(OCC4(F)CNC4)nc3c2F)c2ccccc2c1 [Example 110, 4-(4-(3,8-diazabicyclo [3.2.1]octan-3-yl)-6-chloro-8-fluoro-2-((3-fluoroazetidin-3-yl)methoxy)quinazolin-7-yl)naphthalen-2-ol, TFA]
2470 nM | NC1(COc2nc(N3CC4CCC(C3)N4)c3cc(Cl)c(-c4cc(O)cc5ccccc45)c(F)c3n2)CCOC1 (centres unmarked) [Example 111, 4-(2-((3-amino-tetrahydrofuran-3-yl)methoxy)-4-(3,8-diazabicyclo[3.2.1]octan-3-yl)-6-chloro-8-fluoroquinazolin-7-yl) naphthalen-2-ol, TFA]
2730 nM | NC1(COc2nc(N3CC4CCC(C3)N4)c3cc(Cl)c(-c4cc(O)cc5ccccc45)c(F)c3n2)CCCC1 [Example 112, 4-(2-((1-aminocyclo-pentyl)methoxy)-4-(3,8-diazabicyclo[3.2.1]octan-3-yl)-6-chloro-8-fluoroquinazolin-7-yl)naphthalen-2-ol, TFA]
697 nM | C[C@]12CC[C@H](CN(c3nc(OCC4(N)CCOC4)nc4c(F)c(-c5cc(O)cc6ccccc56)c(F)cc34)C1)N2 (stereo partly drawn) [Example 113, 4-(2-((3-amino-tetrahydrofuran-3-yl)methoxy)-6,8-difluoro-4-((1S,5R)-1-methyl-3,8-diazabicyclo [3.2.1]octan-3-yl)quinazolin-7-yl)naphthalen-2-ol, TFA]
794 nM | C[C@]12CC[C@H](CN(c3nc(OCC4(N)CCC4)nc4c(F)c(-c5cc(O)cc6ccccc56)c(F)cc34)C1)N2 [Example 114, 4-(2-((1-aminocyclobutyl)methoxy)-6,8-difluoro-4-((1S,5R)-1-methyl-3,8-diazabicyclo[3.2.1]octan-3-yl)quinazolin-7-yl)naphthalen-2-ol, TFA]
1440 nM | C[C@]12CC[C@H](CN(c3nc(OC[C@H]4CCN(C5CCCCC5O)C4)nc4c(F)c(-c5cc(O)cc6ccccc56)c(Cl)cc34)C1)N2 (stereo partly drawn) [Example 120, 4-(6-chloro-8-fluoro-2-(((3S)-1-(2-hydroxy-cyclohexyl)pyrrolidin-3-yl)methoxy)-4-((1S,5R)-1-methyl-3,8-diazabicyclo [3.2.1]octan-3-yl)quinazolin-7-yl)naphthalen-2-ol, TFA]
